In ChEMBL document CHEMBL4303773 (Nature, 2020):
Calls of active or inactive are those of the source. The calls are words filed in the database; no cut-off is given here.

Key:
[1] = molecular target: T1, Muscarinic acetylcholine receptor M5 (Homo sapiens, UniProt P08912); assay: Activity of compound against Muscarinic acetylcholine receptor M5 (CHRM5) by displacement of 3H-QNB
T1 sequence (P08912 whole entry): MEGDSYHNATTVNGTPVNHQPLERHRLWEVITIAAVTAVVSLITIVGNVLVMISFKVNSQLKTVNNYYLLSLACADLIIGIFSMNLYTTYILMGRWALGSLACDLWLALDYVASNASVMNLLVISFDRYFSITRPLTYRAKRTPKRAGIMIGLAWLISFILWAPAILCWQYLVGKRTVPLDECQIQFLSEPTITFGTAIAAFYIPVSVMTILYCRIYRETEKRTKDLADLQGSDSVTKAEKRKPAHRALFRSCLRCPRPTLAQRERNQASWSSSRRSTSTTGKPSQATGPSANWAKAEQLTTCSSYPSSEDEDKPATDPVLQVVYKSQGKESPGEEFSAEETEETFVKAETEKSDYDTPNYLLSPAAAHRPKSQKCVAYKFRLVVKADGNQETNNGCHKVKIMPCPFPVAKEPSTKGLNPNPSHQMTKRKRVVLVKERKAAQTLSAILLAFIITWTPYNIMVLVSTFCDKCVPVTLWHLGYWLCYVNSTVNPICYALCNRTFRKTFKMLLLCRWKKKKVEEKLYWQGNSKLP

[2] = molecular target: T2, Alpha-2A adrenergic receptor (Homo sapiens, UniProt P08913); assay: Activity of compound against Alpha-2A (ADRA2A) adrenergic receptor by displacement of [3H]-rauwolscine
T2 sequence (P08913 whole entry): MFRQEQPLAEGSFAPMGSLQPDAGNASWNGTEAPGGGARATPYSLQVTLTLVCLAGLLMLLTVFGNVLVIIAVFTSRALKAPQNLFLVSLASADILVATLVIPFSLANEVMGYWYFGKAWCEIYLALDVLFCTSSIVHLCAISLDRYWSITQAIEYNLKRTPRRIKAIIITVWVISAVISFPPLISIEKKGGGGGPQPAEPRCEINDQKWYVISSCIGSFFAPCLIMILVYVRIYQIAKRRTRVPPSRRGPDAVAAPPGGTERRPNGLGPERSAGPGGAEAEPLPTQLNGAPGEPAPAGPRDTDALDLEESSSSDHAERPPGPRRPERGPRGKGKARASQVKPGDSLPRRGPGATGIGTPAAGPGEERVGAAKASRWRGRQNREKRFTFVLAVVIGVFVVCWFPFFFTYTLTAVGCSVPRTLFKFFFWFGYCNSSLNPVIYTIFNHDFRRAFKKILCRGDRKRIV

[3] = molecular target: T3, Muscarinic acetylcholine receptor M2 (Homo sapiens, UniProt P08172); assay: Activity of compound against Muscarinic acetylcholine receptor M2 (CHRM2) by displacement of 3H-QNB
T3 sequence (P08172 whole entry): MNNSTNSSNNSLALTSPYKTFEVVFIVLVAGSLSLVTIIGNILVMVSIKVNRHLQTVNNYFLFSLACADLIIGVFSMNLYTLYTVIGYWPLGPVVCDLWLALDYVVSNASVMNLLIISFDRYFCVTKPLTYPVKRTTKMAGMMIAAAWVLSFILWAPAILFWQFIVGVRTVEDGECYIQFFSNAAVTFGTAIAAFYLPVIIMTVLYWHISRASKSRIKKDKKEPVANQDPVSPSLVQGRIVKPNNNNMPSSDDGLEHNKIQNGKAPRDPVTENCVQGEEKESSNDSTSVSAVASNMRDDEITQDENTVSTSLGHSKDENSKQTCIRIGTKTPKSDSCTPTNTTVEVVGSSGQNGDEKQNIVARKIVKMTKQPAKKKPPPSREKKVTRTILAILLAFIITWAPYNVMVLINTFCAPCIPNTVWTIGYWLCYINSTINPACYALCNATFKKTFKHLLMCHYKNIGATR

SARS-CoV-2 [4] = conditions: Chlorocebus sabaeus; Vero C1008
Vero C1008 [5] = assay: AUC (cytotoxicity %) of compound against Vero E6 cells by MTT assay.; assay type: toxicity, cell-based; conditions: chlorocebus sabaeus
[6] = molecular target: Sigma non-opioid intracellular receptor 1 (Homo sapiens, UniProt Q99720)
Chain of Sigma non-opioid intracellular receptor 1 (Q99720 whole entry): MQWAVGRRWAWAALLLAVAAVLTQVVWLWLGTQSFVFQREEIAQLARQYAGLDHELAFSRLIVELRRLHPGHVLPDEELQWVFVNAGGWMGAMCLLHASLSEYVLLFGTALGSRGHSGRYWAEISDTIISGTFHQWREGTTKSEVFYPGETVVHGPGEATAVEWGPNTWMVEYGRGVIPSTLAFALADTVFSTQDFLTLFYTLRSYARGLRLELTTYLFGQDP
Description: Displacement of [3H]-pentazocin from the Sigma1 receptor

[7] = molecular target: Voltage-gated inwardly rectifying potassium channel KCNH2 (Homo sapiens, UniProt Q12809)
Chain of Voltage-gated inwardly rectifying potassium channel KCNH2 (Q12809 whole entry): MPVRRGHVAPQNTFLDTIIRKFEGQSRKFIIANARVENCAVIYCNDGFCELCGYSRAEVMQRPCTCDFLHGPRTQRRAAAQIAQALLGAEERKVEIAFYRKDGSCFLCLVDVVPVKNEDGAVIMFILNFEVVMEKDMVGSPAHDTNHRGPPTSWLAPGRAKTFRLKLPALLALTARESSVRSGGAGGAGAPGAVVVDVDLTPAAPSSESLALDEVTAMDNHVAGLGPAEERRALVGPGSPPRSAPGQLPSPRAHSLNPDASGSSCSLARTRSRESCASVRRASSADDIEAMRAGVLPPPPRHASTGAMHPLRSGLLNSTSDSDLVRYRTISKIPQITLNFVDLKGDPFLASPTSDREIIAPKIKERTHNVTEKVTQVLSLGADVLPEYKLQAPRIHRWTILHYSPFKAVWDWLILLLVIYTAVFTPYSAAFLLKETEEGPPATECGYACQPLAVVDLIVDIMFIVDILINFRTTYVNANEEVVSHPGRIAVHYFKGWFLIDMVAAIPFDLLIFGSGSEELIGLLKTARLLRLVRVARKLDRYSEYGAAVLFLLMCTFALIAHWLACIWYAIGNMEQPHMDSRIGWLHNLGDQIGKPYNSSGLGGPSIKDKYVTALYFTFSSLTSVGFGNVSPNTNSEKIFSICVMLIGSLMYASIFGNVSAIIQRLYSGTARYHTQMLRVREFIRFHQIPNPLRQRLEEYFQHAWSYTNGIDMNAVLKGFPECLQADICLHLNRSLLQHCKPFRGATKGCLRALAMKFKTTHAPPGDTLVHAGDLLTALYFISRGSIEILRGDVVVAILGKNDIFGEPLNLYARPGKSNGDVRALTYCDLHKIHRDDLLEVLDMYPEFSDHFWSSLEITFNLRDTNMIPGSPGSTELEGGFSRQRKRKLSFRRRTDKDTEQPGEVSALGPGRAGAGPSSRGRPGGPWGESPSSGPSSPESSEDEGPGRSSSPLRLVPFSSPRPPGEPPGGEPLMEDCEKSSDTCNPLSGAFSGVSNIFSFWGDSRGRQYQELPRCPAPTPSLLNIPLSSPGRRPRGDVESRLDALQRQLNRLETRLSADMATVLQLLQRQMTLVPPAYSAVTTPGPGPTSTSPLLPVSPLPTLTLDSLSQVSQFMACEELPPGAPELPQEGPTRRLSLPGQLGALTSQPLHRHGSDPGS
Description: hERG binding assays: Displacement of [3H]-Dofetilide (5 nM final) from hERG membranes obtained from HEK293 cells

SARS-CoV-2 [8] = assay: IC90 for antiviral activity against SARS-CoV-2 in the Vero E6 cell line by measuring infectious viral titer of supernatent from compound-treated Vero E6 cells by Median Tissue Culture Infectious Dose (TCID)50 by the method of Reed and Muench; assay type: functional, Chlorocebus sabaeus; conditions: Severe acute respiratory syndrome coronavirus 2, Vero C1008
[9] = molecular target: Sigma intracellular receptor 2 (Homo sapiens, UniProt Q5BJF2); assay: Displacement of [3H]-DTG from the Sigma2 receptor
Chain of Sigma intracellular receptor 2 (Q5BJF2 whole entry): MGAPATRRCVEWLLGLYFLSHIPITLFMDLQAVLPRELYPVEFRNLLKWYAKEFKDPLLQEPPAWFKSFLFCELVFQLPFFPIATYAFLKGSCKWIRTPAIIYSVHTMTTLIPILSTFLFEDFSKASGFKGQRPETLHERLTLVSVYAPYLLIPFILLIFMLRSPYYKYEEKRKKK

[10] = molecular target: T4, Muscarinic acetylcholine receptor M4 (Homo sapiens, UniProt P08173); assay: Activity of compound against Muscarinic acetylcholine receptor M4 (CHRM4) by displacement of 3H-QNB
T4 sequence (P08173 whole entry): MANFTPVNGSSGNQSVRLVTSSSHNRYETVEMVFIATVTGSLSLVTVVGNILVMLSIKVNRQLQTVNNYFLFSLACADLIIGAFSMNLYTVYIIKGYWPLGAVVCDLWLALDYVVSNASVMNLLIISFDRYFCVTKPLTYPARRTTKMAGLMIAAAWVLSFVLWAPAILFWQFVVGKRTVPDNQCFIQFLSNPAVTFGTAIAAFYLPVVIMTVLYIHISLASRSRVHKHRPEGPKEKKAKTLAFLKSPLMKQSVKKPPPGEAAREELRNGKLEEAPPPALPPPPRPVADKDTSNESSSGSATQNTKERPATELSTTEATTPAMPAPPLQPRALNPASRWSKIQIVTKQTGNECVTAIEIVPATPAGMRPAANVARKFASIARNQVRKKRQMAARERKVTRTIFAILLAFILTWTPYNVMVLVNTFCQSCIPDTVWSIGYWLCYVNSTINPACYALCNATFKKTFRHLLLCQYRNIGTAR

Vero C1008 [11] = assay: (§1) Cytotoxicity of compound against Vero E6 cells by MTT assay.; conditions: chlorocebus sabaeus, vero c1008
SARS-CoV-2 [12] = conditions: Chlorocebus sabaeus; Vero C1008; remark: listed apart in the source
[13] = as §1; conditions: chlorocebus sabaeus, Vero E6 cells
in vitro = conditions: monkey, Vero E6 cells

CCN(CCO)CCCC(C)Nc1ccnc2cc(Cl)ccc12 (stereo not drawn) [HYDROXYCHLOROQUINE]
Ki [1]: 20 µM
Ki [2]: 6.46 µM
Ki [3]: 5.13 µM
AUC (SARS-CoV-2 [4]): 140
AUC cytotoxicity (Vero C1008 [5]): 234.6
Ki [6]: 0.126 µM
Ki [7]: 2.51 µM
IC90 (SARS-CoV-2 [8]): 5.78 µM
Ki [9]: 1 µM
Ki [10]: 5.5 µM

CCOC(=O)N1CCC(=C2c3ccc(Cl)cc3CCc3cccnc32)CC1 [LORATADINE]
pCC50 (Vero C1008 [11]): Linear Fit
pIC50 (SARS-CoV-2 [12]): Linear Fit; INACTIVE

CN(C)C(=N)N=C(N)N [METFORMIN]
CC50 [13]: ~33.6 µM
AUC cytotoxicity (Vero C1008 [5]): 305.4
selectivity ratio (in vitro): 1.04

N=C(N)c1ccc2cc(OC(=O)c3ccc(N=C(N)N)cc3)ccc2c1 [NAFAMOSTAT]
pCC50 (Vero C1008 [11]): ~ 2.44
AUC cytotoxicity (Vero C1008 [5]): 279.9
selectivity ratio (in vitro): 0.926 (inactive)
